The results in this text go back to ChEMBL document CHEMBL4387768, “New dual ligands for the D2 and 5-HT1A receptors from the group of 1,8-naphthyl derivatives of LCAP” (Bioorg Med Chem Lett, 2019).

Format in all cases: cell-based
The target of one test is D(2) dopamine receptor (Homo sapiens, UniProt P14416). Briefly: Displacement of [3H]-raclopride from recombinant human D2L receptor expressed in HEK293 cells measured after 1 hr by microbeta counting method. In general terms: Loss of bound radioactivity is the signal in a displacement assay; it reports binding, not function.
D(2) dopamine receptor, sequence (P14416 whole entry): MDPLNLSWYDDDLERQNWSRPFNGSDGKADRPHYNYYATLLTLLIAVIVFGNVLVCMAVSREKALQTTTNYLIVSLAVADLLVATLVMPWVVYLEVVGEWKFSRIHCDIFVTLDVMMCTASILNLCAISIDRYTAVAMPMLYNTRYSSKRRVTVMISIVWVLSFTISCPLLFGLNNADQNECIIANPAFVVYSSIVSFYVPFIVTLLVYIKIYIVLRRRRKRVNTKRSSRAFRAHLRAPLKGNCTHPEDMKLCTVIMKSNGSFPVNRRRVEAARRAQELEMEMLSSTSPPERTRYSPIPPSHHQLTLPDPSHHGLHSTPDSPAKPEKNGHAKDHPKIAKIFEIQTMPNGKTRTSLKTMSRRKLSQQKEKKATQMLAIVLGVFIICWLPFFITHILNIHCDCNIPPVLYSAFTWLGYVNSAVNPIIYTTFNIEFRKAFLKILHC
Test [1] deals with 5-hydroxytryptamine receptor 2A (Homo sapiens, UniProt P28223). Briefly: Displacement of [3H]-ketanserin from recombinant human 5HT2A receptor expressed in CHOK1 cells measured after 1 hr by microbeta counting method.
5-hydroxytryptamine receptor 2A, sequence (P28223 whole entry): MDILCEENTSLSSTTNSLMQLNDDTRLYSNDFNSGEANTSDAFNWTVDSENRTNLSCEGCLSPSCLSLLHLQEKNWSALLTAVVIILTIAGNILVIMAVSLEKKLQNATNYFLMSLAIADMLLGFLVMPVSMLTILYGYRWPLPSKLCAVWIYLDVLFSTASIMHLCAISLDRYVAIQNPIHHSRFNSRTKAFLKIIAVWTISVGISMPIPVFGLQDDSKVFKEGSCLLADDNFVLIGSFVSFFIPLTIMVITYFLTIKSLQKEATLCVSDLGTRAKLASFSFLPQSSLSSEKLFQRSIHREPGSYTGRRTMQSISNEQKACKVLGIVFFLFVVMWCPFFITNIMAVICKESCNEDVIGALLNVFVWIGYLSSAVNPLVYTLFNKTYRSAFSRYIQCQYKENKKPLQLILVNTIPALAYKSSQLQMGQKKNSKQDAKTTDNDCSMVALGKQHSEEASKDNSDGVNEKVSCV
The target in test [2] is 5-hydroxytryptamine receptor 7 (Homo sapiens, UniProt P34969). Briefly: Displacement of [3H]-5-CT from recombinant human 5HT7B receptor expressed in HEK293 cells measured after 1 hr by microbeta counting method.
5-hydroxytryptamine receptor 7, sequence (P34969 whole entry): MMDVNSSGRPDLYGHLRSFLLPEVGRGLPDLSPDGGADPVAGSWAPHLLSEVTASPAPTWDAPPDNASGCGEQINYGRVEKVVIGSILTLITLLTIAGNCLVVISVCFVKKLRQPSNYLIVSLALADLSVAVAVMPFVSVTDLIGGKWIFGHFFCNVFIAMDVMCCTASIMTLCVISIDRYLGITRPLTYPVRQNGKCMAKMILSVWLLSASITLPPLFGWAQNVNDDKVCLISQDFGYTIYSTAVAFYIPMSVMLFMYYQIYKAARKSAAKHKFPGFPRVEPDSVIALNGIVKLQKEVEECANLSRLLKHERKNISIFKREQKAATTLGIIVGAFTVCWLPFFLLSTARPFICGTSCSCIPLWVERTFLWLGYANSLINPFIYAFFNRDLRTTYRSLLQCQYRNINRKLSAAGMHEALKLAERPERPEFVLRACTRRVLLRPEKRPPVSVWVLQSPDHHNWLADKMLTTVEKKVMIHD
Test [3] deals with T1, 5-hydroxytryptamine receptor 1A (Homo sapiens, UniProt P08908).
T1 sequence (P08908 whole entry): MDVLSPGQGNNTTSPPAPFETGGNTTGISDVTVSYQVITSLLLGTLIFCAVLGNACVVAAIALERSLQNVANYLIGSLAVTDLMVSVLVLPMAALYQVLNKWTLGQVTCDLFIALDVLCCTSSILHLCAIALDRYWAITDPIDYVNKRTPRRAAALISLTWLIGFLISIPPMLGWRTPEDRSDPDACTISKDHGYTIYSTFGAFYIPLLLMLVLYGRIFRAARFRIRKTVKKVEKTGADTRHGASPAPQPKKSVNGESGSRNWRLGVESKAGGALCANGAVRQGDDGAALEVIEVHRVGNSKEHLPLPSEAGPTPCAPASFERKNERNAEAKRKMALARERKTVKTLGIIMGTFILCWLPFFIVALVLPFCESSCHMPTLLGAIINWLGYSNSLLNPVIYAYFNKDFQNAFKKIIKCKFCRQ
In words: Displacement of [3H]-8-OHDPAT from recombinant human 5HT1A receptor expressed in HEK293 cells measured after 1 hr by microbeta counting method.

Test [4] addresses 5-hydroxytryptamine receptor 6 (Homo sapiens, UniProt P50406). Briefly: Displacement of [3H]-LSD from recombinant human 5HT6 receptor expressed in HEK293 cells measured after 1 hr by microbeta counting method.

5-hydroxytryptamine receptor 6, sequence (P50406 whole entry): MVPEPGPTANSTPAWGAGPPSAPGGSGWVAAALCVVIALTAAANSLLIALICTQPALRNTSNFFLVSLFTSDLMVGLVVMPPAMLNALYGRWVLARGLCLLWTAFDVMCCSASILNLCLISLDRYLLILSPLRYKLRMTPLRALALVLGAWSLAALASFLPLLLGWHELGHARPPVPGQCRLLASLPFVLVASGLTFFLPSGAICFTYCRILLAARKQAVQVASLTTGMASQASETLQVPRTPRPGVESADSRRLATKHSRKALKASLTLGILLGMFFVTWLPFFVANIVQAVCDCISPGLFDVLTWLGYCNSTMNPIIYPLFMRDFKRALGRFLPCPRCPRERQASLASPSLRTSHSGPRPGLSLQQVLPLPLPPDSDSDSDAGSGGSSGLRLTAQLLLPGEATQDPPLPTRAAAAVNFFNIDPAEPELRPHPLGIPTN

Broadly, the Ki is the equilibrium dissociation constant of an inhibitor or competing ligand from its target. As for `O=C1c2cccc3cccc(c23)N1CCCCCCN1CCN(c2ccccn2)CC1`, the Ki was determined as 867 nM on D(2) dopamine receptor; 892 nM in test [1]; 184 nM in test [2]; 32 nM in test [3]; 1460 nM in test [4].

For the compound `COc1ccc(N2CCN(CCCCCCN3C(=O)c4cccc5cccc3c45)CC2)cc1`, the Ki on D(2) dopamine receptor turned out to be 180 nM; in test [1] it was 1930 nM; in test [2], 3740 nM; in test [3], 291 nM; in test [4] it was 3670 nM.

For the compound `COc1ccc(N2CCN(CCCCCCN3C(=O)c4cccc5cccc(c45)C3=O)CC2)cc1`, the Ki on D(2) dopamine receptor amounted to 40000 nM; in test [1] it was 60100 nM; in test [2], 116000 nM; in test [3], 3570 nM; in test [4] it was 5760 nM.

In the case of `O=[N+]([O-])c1ccccc1N1CCN(CCCCCCN2c3cccc4cccc(c34)S2(=O)=O)CC1`, the inhibitory constant (Ki) on D(2) dopamine receptor was determined as 264 nM; in test [1], 533 nM; in test [2] it was 822 nM; in test [3], 482 nM; in test [4] it was 494 nM.

Regarding `O=C1c2cccc3cccc(c23)N1CCCCCCN1CCN(c2cccc3cccnc23)CC1`, the inhibition constant Ki worked out at 82 nM on D(2) dopamine receptor; 222 nM in test [1]; 119 nM in test [2]; 22 nM in test [3]; 999 nM in test [4].

`O=C1c2cccc3cccc(c23)N1CCCCCCN1CCN(c2ccccc2[N+](=O)[O-])CC1`: the Ki amounted to 431 nM on D(2) dopamine receptor; 3980 nM in test [1]; 696 nM in test [2]; 9470 nM in test [3]; 952 nM in test [4].

Turning to `O=C1c2cccc3cccc(c23)C(=O)N1CCCCCCN1CCN(c2ccccc2[N+](=O)[O-])CC1`, the Ki was 141 nM on D(2) dopamine receptor; 1920 nM in test [1]; 710 nM in test [2]; 373 nM in test [3]; 1410 nM in test [4].

Take `O=C1c2cccc3cccc(c23)N1CCCCCCN1CCN(c2ncccn2)CC1`: the Ki is 188 nM on D(2) dopamine receptor; 43 nM in test [1]; 475 nM in test [2]; 94 nM in test [3]; 5250 nM in test [4].

As to `CCOc1ccccc1N1CCN(CCCCCCN2C(=O)c3cccc4cccc(c34)C2=O)CC1`, the inhibition constant (Ki) on D(2) dopamine receptor amounted to 27 nM; in test [1], 461 nM; in test [2], 73 nM; in test [3], 28 nM; in test [4] it was 246 nM.

`COc1cccc(N2CCN(CCCCCCN3C(=O)c4cccc5cccc(c45)C3=O)CC2)c1`: the Ki was 271 nM at D(2) dopamine receptor; 334 nM in test [1]; 371 nM in test [2]; 47 nM in test [3]; 347 nM in test [4].

On to `COc1ccccc1N1CCN(CCCCCCn2c(=O)n3c4c(cccc42)CCC3)CC1`, for which the Ki amounted to 2 nM on D(2) dopamine receptor; 456 nM in test [1]; 291 nM in test [2]; 19 nM in test [3]; 3270 nM in test [4].

Consider `COc1cccc(N2CCN(CCCCCCN3C(=O)c4cccc5cccc3c45)CC2)c1`, for which the Ki on D(2) dopamine receptor worked out at 114 nM; in test [1] it was 652 nM; in test [2], 366 nM; in test [3], 47 nM; in test [4], 1700 nM.

On to `CCOc1ccccc1N1CCN(CCCCCCN2c3cccc4cccc(c34)S2(=O)=O)CC1`, for which the Ki at D(2) dopamine receptor turned out to be 30 nM; in test [1], 578 nM; in test [2], 34 nM; in test [3], 48 nM; in test [4], 476 nM.

In the case of `O=C1c2cccc3cccc(c23)C(=O)N1CCCCCCN1CCN(c2ccccn2)CC1`, the inhibitory constant (Ki) was 1300 nM on D(2) dopamine receptor; 563 nM in test [1]; 1200 nM in test [2]; 172 nM in test [3]; 1970 nM in test [4].

Consider `O=S1(=O)c2cccc3cccc(c23)N1CCCCCCN1CCN(c2ccccn2)CC1`, for which the Ki at D(2) dopamine receptor is 118 nM; in test [1] it was 443 nM; in test [2], 344 nM; in test [3], 35 nM; in test [4], 182 nM.

On to `COc1ccccc1N1CCN(CCCCCCN2C(=O)c3cccc4cccc(c34)C2=O)CC1`, for which the Ki was 10 nM on D(2) dopamine receptor; 337 nM in test [1]; 266 nM in test [2]; 20 nM in test [3]; 671 nM in test [4].

For `CCOc1ccccc1N1CCN(CCCCCCN2C(=O)c3cccc4cccc2c34)CC1`, the Ki was determined as 11 nM on D(2) dopamine receptor; 717 nM in test [1]; 84 nM in test [2]; 22 nM in test [3]; 1920 nM in test [4].
